Converted amounts (≈) assume the structure as drawn.
Key:
[1] = (§1) Cytotoxicity against human MCF7 cells after 48 and 72 hrs by MTT assay; format: cell-based; conditions: MCF7 cells
[2] = test system: MCF7; assay: as §1; format: cell-based; conditions: mcf7, 72 h
[3] = Cytotoxicity against human HCT116 cells at 3 ug/mL by MTT assay; format: cell-based, HCT-116; conditions: read-out: INH
[4] = test system: Mycobacterium bovis BCG str. ATCC 35743; assay: Antitubercular activity against dormant Mycobacterium bovis BCG ATCC 35743 assessed as growth inhibition at 10 ug/mL by NR assay; format: functional
[5] = Cytotoxicity against human MCF7 cells at 30 ug/mL by MTT assay; format: cell-based; conditions: read-out: INH
[6] = Cytotoxicity against human A549 cells at 3 ug/mL by MTT assay; format: cell-based; conditions: read-out: INH
[7] = test system: Mycobacterium bovis BCG str. ATCC 35743; assay: Antitubercular activity against dormant Mycobacterium bovis BCG ATCC 35743 assessed as growth inhibition at 30 ug/mL by NR assay; format: functional
[8] = Cytotoxicity against human A549 cells at 30 ug/mL by MTT assay; format: cell-based; conditions: read-out: INH
[9] = test system: Escherichia coli; assay: Antibacterial activity against Escherichia coli after 18 hrs by broth dilution method; format: functional, organism-based
[10] = test system: Mycobacterium tuberculosis; assay: Antitubercular activity against dormant Mycobacterium tuberculosis H37Ra by XTT reduction menadione assay; format: functional, organism-based
[11] = (§2) Cytotoxicity against human A549 cells after 48 and 72 hrs by MTT assay; format: cell-based; conditions: A549 cells
[12] = test system: A549; assay: as §2; format: cell-based; conditions: a549, 72 h
[13] = test system: Mycobacterium tuberculosis; assay: Antitubercular activity against dormant Mycobacterium tuberculosis H37Ra assessed as growth inhibition at 10 ug/mL by XTT reduction menadione assay; format: functional; conditions: read-out: GI
[14] = (§3) Antitubercular activity against dormant Mycobacterium bovis BCG ATCC 35743 by NR assay; format: functional, Mycobacterium bovis BCG str. ATCC 35743
[15] = test system: Mycobacterium bovis BCG str. ATCC 35743; assay: as §3; format: functional
[16] = test system: Staphylococcus aureus; assay: Antibacterial activity against Staphylococcus aureus after 18 hrs by broth dilution method; format: functional, organism-based
[17] = Cytotoxicity against human MCF7 cells at 10 ug/mL by MTT assay; format: cell-based; conditions: read-out: INH
[18] = test system: Pseudomonas; assay: Antibacterial activity against Pseudomonas after 18 hrs by broth dilution method; format: functional, organism-based
[19] = Cytotoxicity against human HCT116 cells at 10 ug/mL by MTT assay; format: cell-based, HCT-116; conditions: read-out: INH
[20] = test system: Mycobacterium bovis BCG str. ATCC 35743; assay: Antitubercular activity against dormant Mycobacterium bovis BCG ATCC 35743 assessed as growth inhibition at 3 ug/mL by NR assay; format: functional
[21] = test system: Bacillus subtilis; assay: Antibacterial activity against Bacillus subtilis after 18 hrs by broth dilution method; format: functional, organism-based
[22] = Cytotoxicity against human HCT116 cells at 30 ug/mL by MTT assay; format: cell-based, HCT-116; conditions: read-out: INH
[23] = Cytotoxicity against human HCT116 cells after 48 and 72 hrs by MTT assay; format: cell-based, HCT-116
[24] = test system: Mycobacterium tuberculosis; assay: Antitubercular activity against dormant Mycobacterium tuberculosis H37Ra assessed as growth inhibition at 3 ug/mL by XTT reduction menadione assay; format: functional; conditions: read-out: GI
[25] = Cytotoxicity against human MCF7 cells at 3 ug/mL by MTT assay; format: cell-based; conditions: read-out: INH
[26] = Cytotoxicity against human A549 cells at 10 ug/mL by MTT assay; format: cell-based; conditions: read-out: INH
[27] = test system: Mycobacterium tuberculosis; assay: Antitubercular activity against dormant Mycobacterium tuberculosis H37Ra assessed as growth inhibition at 30 ug/mL by XTT reduction menadione assay; format: functional; conditions: read-out: GI

O=C1CSC(c2ccccc2)N1c1ccccc1 (stereo not drawn)
GI50 at 72 h [1]: > 100 µg/mL
GI90 [2]: > 100 µg/mL
cytotoxicity at 3 ug/mL [3]: 3.3%
growth inhibition (GI) [4]: 15.4%
cytotoxicity at 30 ug/mL [5]: 31.7%
cytotoxicity at 3 ug/mL [6]: 0%
growth inhibition (GI) [7]: 80.7%
cytotoxicity at 30 ug/mL [8]: 0%
IC50 [9]: > 30 µg/mL
MIC [9]: > 30 µg/mL
IC50 [10]: > 30 µg/mL
IC90 [10]: > 30 µg/mL
GI50 at 72 h [11]: > 100 µg/mL
GI90 [12]: > 100 µg/mL
inhibition of growth at 10 µg/mL [13]: 31.7%
IC50 [14]: 20.7 µg/mL (≈ 81.1 µM)
IC90 [15]: > 30 µg/mL
IC50 [16]: > 30 µg/mL
MIC [16]: > 30 µg/mL
cytotoxicity at 10 ug/mL [17]: 5.3%
IC50 [18]: > 30 µg/mL
MIC [18]: > 30 µg/mL
cytotoxicity at 10 ug/mL [19]: 3.2%
growth inhibition (GI) [20]: 14.2%
IC50 [21]: > 30 µg/mL
MIC [21]: > 30 µg/mL
cytotoxicity at 30 ug/mL [22]: 16.8%
GI50 at 72 h ([23]; HCT116 cells): > 100 µg/mL
GI90 ([23]; hct-116, 72 h): > 100 µg/mL
inhibition of growth at 3 µg/mL [24]: 5%
cytotoxicity at 3 ug/mL [25]: -4.2%
cytotoxicity at 10 ug/mL [26]: 0%
inhibition of growth at 30 µg/mL [27]: 34.5%

Reference: ChEMBL document CHEMBL3779788, “Facile synthesis of 1,3-thiazolidin-4-ones as antitubercular agents” (Bioorg Med Chem Lett, 2016)
